Common to all, as to assay: NCI-60 cell line screen, 48 h
Experiment [1] deals with SK-OV-3 ovarian.
In experiment [2] the test system is RXF 393 renal.
Experiment [3] concerns NCI-H460 lung.
Experiment [4] concerns EKVX NSCLC.
For experiment [5], the system named is OVCAR-3 ovarian.
Experiment [6] concerns MDA-N.
Experiment [7] concerns HL-60(TB) leukemia.
For experiment [8], the system named is A498 renal.
Experiment [9] relates to 786-0 renal.
In experiment [10] the test system is HOP-62 NSCLC.
Experiment [11] relates to DU-145 prostate.
The subject of experiment [12] is BT-549 breast.
Experiment [13] has as its system SW-620 colon.
Experiment [14] has as its system SF-539 CNS.
Experiment [15] has as its system SK-MEL-5 melanoma.
Experiment [16] has as its system SR leukemia.

Structures are written as SMILES.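 1) Cells in 96-well plates. 2) Compound, 48 h, 5 concentrations. 3) Linear interpolation between surrounding doses. 4) Unreached endpoint = highest concentration. Abbreviation: GI50, concentration required for 50% inhibition of growth. TGI: total growth inhibition.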

Turning to `CCO/C(O)=C(/C(=N)N1CCOCC1)C(=O)NC(C)C`, the TGI in [1], in experiment [2], in experiment [3], in experiment [4], in [5] and in [6] was > 100 µM in each case. The TGI in [7], in experiment [8], in [9], in experiment [10], in experiment [11] and in [12] was > 100 µM in each case. For the same compound, the TGI in experiment [13] and in experiment [14] was > 100 µM throughout.
As for `Clc1sc(Cl)c2c1[C@H](Cl)C[C@@H]2Cl`, the TGI in experiment [15] is > 100 µM; in experiment [1] it was > 100 µM; in experiment [3], > 100 µM; in [4], > 100 µM; in experiment [5], 70.9 µM; in experiment [6], 64.5 µM. Besides, the TGI was > 100 µM in experiment [8]; 48.9 µM in experiment [9]; > 100 µM in experiment [10]; 96.9 µM in experiment [11]; 62.5 µM in [12]; 19.6 µM in experiment [13]. The TGI in experiment [14] is 42.4 µM; in experiment [16], > 100 µM.
Regarding `COc1ccc(Cc2cc(Cc3ccc(OC)cc3)cc(Cc3ccc(OC)cc3)c2)cc1`, the TGI in [1], in [3], in experiment [4], in experiment [5], in experiment [6] and in [7] was > 100 µM in each case. Besides, the TGI in experiment [8], in [9], in experiment [10], in experiment [11], in experiment [12] and in experiment [13] was > 100 µM in each case. Besides, the TGI in experiment [14] and in experiment [16] was > 100 µM throughout.
For the compound `CCOC(=O)C1=C(C)N(c2ccc(Cl)cc2)C2(O)C=CC(=O)C3=C(O)c4ccccc4C(=O)C312` (centres undefined), the TGI in [15] came to 20.4 µM; in [1] it was 30.7 µM; in experiment [3], 18.2 µM; in experiment [4] it was 21.4 µM; in experiment [5], 5.84 µM; in experiment [6], 18.2 µM. For the same compound, the TGI in experiment [7] amounted to 5.77 µM; in experiment [8], 30 µM; in experiment [9], 4.07 µM; in [10], 18.9 µM; in experiment [11], 21.1 µM; in [12] it was 28 µM. Further, the TGI in [13] amounted to 12.7 µM; in experiment [14], 18.1 µM.
With `CC1(C)Cc2c(sc3[nH]c(=S)[nH]c(=S)c23)CS1`, the TGI is > 100 µM in experiment [15]; 99.7 µM in experiment [1]; > 100 µM in [2]; > 100 µM in [3]; 82.9 µM in [5]; > 100 µM in [6]. For the same compound, the TGI in experiment [7] is 92.7 µM; in experiment [8], > 100 µM; in experiment [9], > 100 µM; in [10], > 100 µM; in experiment [11], > 100 µM; in experiment [12] it was > 100 µM. The TGI in [13], in [14] and in experiment [16] was > 100 µM in each case.
Turning to `CC(=O)NS(=O)(=O)c1ccc(NCc2cccc3c(=O)c4ccc(Cl)cc4oc23)cc1`, the TGI in experiment [15] is > 100 µM; in experiment [1], > 100 µM; in [2], 78.9 µM; in [3] it was 51 µM; in [4] it was > 100 µM; in [5] it was > 93.3 µM. The TGI in experiment [6] is > 100 µM; in experiment [7] it was 5.43 µM; in [8] it was > 100 µM; in experiment [9], > 100 µM; in [10], 96.8 µM; in experiment [11], > 100 µM. Besides, the TGI was > 100 µM in [12], > 100 µM in experiment [13] and > 65.3 µM in experiment [14].
In the case of `O=C1C=C(c2ccccc2)OC1C1Sc2ccccc2NC1=O` (centres undefined), the TGI was 38.2 µM in [15]; > 33.8 µM in experiment [1]; > 94.4 µM in experiment [2]; > 20.9 µM in [3]; > 100 µM in experiment [4]; 18.9 µM in [5]. Also, the TGI in [6] is > 100 µM; in experiment [7], 13.6 µM; in experiment [8], > 31.5 µM; in [9] it was > 66.3 µM; in experiment [10], > 19.8 µM; in experiment [11], > 81 µM. The TGI in experiment [12], in [13] and in [14] was > 100 µM each time.
Turning to `N#Cc1c(Cl)cc(C#N)n2c1nc1ccccc12`, the TGI came out at 29.3 µM in experiment [15]; 51.3 µM in experiment [1]; 28.7 µM in [2]; 35.4 µM in experiment [3]; 39.5 µM in [4]; 10.7 µM in [5]. Further, the TGI in experiment [6] was 22.7 µM; in experiment [7] it was 3.03 µM; in experiment [8], 49.9 µM; in experiment [9], 7.08 µM; in [10], 44.1 µM; in experiment [11], 41.3 µM. Further, the TGI in experiment [12] came out at 18.4 µM; in experiment [13] it was 9.1 µM; in [14] it was 19.1 µM.
Turning to `CC[C@H](C)[C@@H]([C@@H](CC(=O)N1CCC[C@H]1[C@H](OC)[C@@H](C)C(=O)NCCc1ccccc1)OC)N(C)C(=O)C(NC(=O)[C@H](C(C)C)N(C)C)C(C)C` (some centres undefined), in [1], the GI50 is 0.00047 µM. In addition, the TGI is 3.48 µM in experiment [1]; > 10 µM in [2]; 7.57 µM in [4]; 0.000544 µM in [5]; 0.000164 µM in [6]; > 10 µM in experiment [8]. The TGI was 1.34 µM in experiment [9]; 3.02 µM in experiment [10]; 0.000963 µM in [11]; > 10 µM in experiment [12]; > 10 µM in [13].
Regarding `Cc1ccc(N2C(=O)C3c4[nH]c5ccc(C)cc5c4C4CCC(C(C)(C)C)CC4C3C2=O)cc1` (centres undefined), the TGI in experiment [15] was > 100 µM; in experiment [3] it was 20.4 µM; in [4] it was 43.4 µM; in experiment [5] it was 27.3 µM; in experiment [6] it was 70.1 µM; in [7] it was 82.8 µM. The TGI in experiment [9] turned out to be 17.1 µM; in [10], 24.5 µM; in experiment [11], 62 µM; in experiment [12] it was 75.9 µM; in experiment [13] it was 58.7 µM.
